Literature values in patent US20250177267A1, “A CLEANSING COMPOSITION” (Conopco, Inc., d/b/a UNILEVER, priority 2022, published 2025).

Settings: prior art acids with pKa greater than 4.5

pKa: 4.72
SMILES: CCCCCC(=O)O [hexanoic acid]
